Tests used:
[1] = test system: intracellular L. donovani amastigotes; assay: Luminescent-based evaluation of intracellular anti-leishmanial activity in THP-1 macrophages; type: cell-based, Leishmania donovani; settings: intracellular Leishmania donovani in THP1 macrophages, luminescence assay (Supplemental Table 2); read-out: Lum IC50
In short: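 PMA-differentiated THP-1 macrophages (150 nM, 72 h) were infected 18 h with firefly luciferase-expressing L. donovani LV82 promastigotes, then washed. Infected cells were treated with compounds at 0.1-10 μM for 72 h. Surviving intracellular amastigotes were quantified by firefly luciferase luminescence after cell lysis and 10 min substrate incubation at room temperature.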

THP-1 macrophages = assay: Effect of compounds on host cell viability (MTT); type: cell-based; settings: read-out: 24h LC50; THP1 macrophages, 24-hour incubation, MTT assay (Supplemental Table 2)
In short: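 THP-1 cells were differentiated with 150 nM PMA for 72 h, then exposed to compounds at 1–50 μM for 24 h; selected compounds were also run at 1–300 μM for 72 h. MTT at 0.5 mg/mL was added for 2 h at 37 °C, and formazan absorbance was read at 560 nm minus 670 nm.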

SMILES	IC50 [1] [µM]	CC50 (THP-1 macrophages) [µM]
CC(C)(C)c1ccc(-c2nc(C(F)(F)F)cn2-c2ccc([N+](=O)[O-])cc2)cc1 [Compound 146]	4.4	> 50
FC(F)(F)c1ccc(-c2ccc3nc[nH]c3c2)cc1 [Compound 135]	> 10	> 50
NCC(=O)Nc1ccc(-n2cc(C(F)(F)F)nc2-c2ccc(-c3ccc(C(F)(F)F)cc3)cc2)cc1 [Compound 79]	7.1	6.3
FC(F)(F)c1ccc(-c2ccc3ncn(-c4ccc(Br)cc4)c3c2)cc1 [Compound 136]	> 10	> 50
FC(F)(F)c1ccc(-c2ccc(-c3cc(C(F)(F)F)nn3-c3ccc(NC4CCN(Cc5ccc(Cl)c(C(F)(F)F)c5)C4)cc3)cc2)cc1 (stereo not shown) [Compound 126]	> 10	> 50
CN(C)c1ccc(-c2cc(C(F)(F)F)nn2-c2ccc(Br)cc2)cc1 [Compound 214]	> 10	> 50
Nc1ccc(-n2nc(C(F)(F)F)cc2-c2ccc(-c3ccc(S(F)(F)(F)(F)F)cc3)cc2)cc1 [Compound 104]	> 10	> 50
FC(F)(F)c1ccc(-c2ccc(-c3cc(C(F)(F)F)nn3-c3ccc(N4CC(NCc5ccccc5)C4)cc3)cc2)cc1 [Compound 112]	> 10	6.3
CC(C)(C)OC(=O)NCC(=O)Nc1ccc(-n2cc(C(F)(F)F)nc2-c2ccc(-c3ccc(C(F)(F)F)cc3)cc2)cc1 [Compound 77]	> 10	> 50
CCCCCC(=O)NC1CCN(c2ccc(-n3nc(C(F)(F)F)cc3-c3ccc(-c4ccc(C(F)(F)F)cc4)cc3)cc2)C1 (stereo not shown) [Compound 63]	> 10	> 50
FC(F)(F)c1cc(-c2ccc(C3CC3)cc2)n(-c2ccc(N3CCNCC3)cc2)n1 [Compound 211]	2.1	13.2
COc1ccc(C(=O)N2CCC(Nc3ccc(-n4nc(C(F)(F)F)cc4-c4ccc(-c5ccc(C(F)(F)F)cc5)cc4)cc3)C2)cc1OC (stereo not shown) [Compound 70]	> 10	> 50
FC(F)(F)c1ccc(-c2ccc(-c3cc(C(F)(F)F)nn3-c3ccc(NC4CN(Cc5ccccc5)C4)cc3)cc2)cc1 [Compound 113]	> 10	19
NC1CN(c2ccc(-n3nc(C(F)(F)F)cc3-c3ccc(-c4ccc(C(F)(F)F)cc4)cc3)cc2)C1 [Compound 172]	> 10	> 50
CC(C)(C)c1ccc(-c2nc(C(F)(F)F)cn2-c2ccc(NC(=O)CN)cc2)cc1 [Compound 157]	> 10	27.6
CC(C)(C)OC(=O)N[C@@H]1CCN(c2ccc(-n3nc(C(F)(F)F)cc3-c3ccc(-c4ccc(C(F)(F)F)cc4)cc3)cc2)C1 [Compound 127]	> 10	> 50
NCCCOc1ccc(CN2CCC(Oc3ccc(-n4nc(C(F)(F)F)cc4C4CCCCC4)cc3)CC2)cc1 [Compound 429]	2.4	12.1
CC(C)(C)c1nc(C(F)(F)F)cn1-c1ccc(NC2CCNC2)cc1 (stereo not shown) [Compound 330]	6.2	> 50
Oc1ccc(CNC2CCN(c3ccc(-n4nc(C(F)(F)F)cc4C4CCCCC4)cc3)C2)cc1 (stereo not shown) [Compound 362]	2.2	20
NC(Cc1ccccc1)C(=O)Nc1ccc(-n2cc(C(F)(F)F)nc2-c2ccc(-c3ccc(C(F)(F)F)cc3)cc2)cc1 (stereo not shown) [Compound 80]	3	8.2

SMILES	IC50 [1] [µM]	CC50 (THP-1 macrophages) [µM]
NC(Cc1ccccc1)C(=O)N1CCC(Nc2ccc(-n3nc(C(F)(F)F)cc3-c3ccc(-c4ccc(C(F)(F)F)cc4)cc3)cc2)C1 (stereo not shown) [Compound 61]	2.3	6.1
Fc1cccc(CNC2CCN(c3ccc(-n4nc(C(F)(F)F)cc4C4CCCCC4)cc3)CC2)c1 [Compound 337]	3.5	32.1
Oc1ccc(CNC2CCN(c3ccc(-n4nc(C(F)(F)F)cc4-c4ccc(-c5ccc(C(F)(F)F)cc5)cc4)cc3)C2)cc1 (stereo not shown) [Compound 18]	4	24.5
CCc1cc(C(F)(F)F)nn1-c1ccc(NC2CCNC2)cc1 (stereo not shown) [Compound 318]	1.8	27
N#Cc1ccc(CN2CC(Nc3ccc(-n4nc(C(F)(F)F)cc4C4CCCCC4)cc3)C2)cc1 [Compound 397]	8.1	27.6
CC(C)(C)c1ccc(-c2nc(C(F)(F)F)cn2-c2ccc(N)cc2)cc1 [Compound 149]	9.1	28.8
NCC(=O)Nc1ccc(-n2nc(C(F)(F)F)c3c2CCCC3)cc1 [Compound 331]	9.9	47
NC1CCN(c2ccc(-n3nc(C4CCCCC4)cc3C(F)(F)F)cc2)C1 (stereo not shown) [Compound 232]	2.6	14.4
FC(F)(F)c1ccc(-c2nc(C(F)(F)F)cn2-c2ccc(NC3CCNC3)cc2)cc1 (stereo not shown) [Compound 296]	3	12.9
NC1CCN(C(=O)c2ccc(-n3cc(C(F)(F)F)nc3-c3ccc(-c4ccc(C(F)(F)F)cc4)cc3)c(F)c2)C1 (stereo not shown) [Compound 199]	1.3	9.4
NC1CCN(c2ccc(-n3ccnc3-c3ccc(-c4ccccc4)cc3)cc2)C1 (stereo not shown) [Compound 83]	1.8	6.2
FC(F)(F)c1ccc(-c2ccc(-c3cc(C(F)(F)F)nn3-c3ccc(N4CCC(NCc5ccccc5)CC4)cc3)cc2)cc1 [Compound 89]	4	8
FC(F)(F)c1ccc(-c2cnnn2-c2ccc(Br)cc2)cc1 [Compound 131]	> 10	37.2
Nc1ccc(-n2cc(C(F)(F)F)nc2-c2ccc(-c3ccc(C(F)(F)F)cc3)cc2)cc1 [Compound 156]	5.8	20.8
CC(C)C#Cc1ccc(-c2cc(C(F)(F)F)nn2-c2ccc(N3CCNCC3)cc2)cc1 [Compound 45]	3.7	3.2
O=[N+]([O-])c1cccc(-n2nc(C(F)(F)F)cc2-c2ccc(-c3ccc(C(F)(F)F)cc3)cc2)c1 [Compound 189]	> 10	> 50
NC1CCN(c2ccc(-n3nc(C(F)F)cc3-c3ccc(-c4ccc(C(F)(F)F)cc4)cc3)cc2)C1 (stereo not shown) [Compound 281]	2	14.3
O=C(C1CCCCC1)N1CC(Nc2ccc(-n3nc(C(F)(F)F)cc3-c3ccc(-c4ccc(C(F)(F)F)cc4)cc3)cc2)C1 [Compound 71]	> 10	8.4
FC(F)(F)c1cn(-c2ccc(N3CCNCC3)cc2)c(-c2ccc(Cl)cc2)n1 [Compound 51]	8.2	25.7
FC(F)(F)c1ccc(-c2ccc(-c3nc(C(F)(F)F)cn3-c3ccc(N4CCNCC4)cc3)cc2)cc1 [Compound 74]	2.8	6.5

SMILES	IC50 [1] [µM]	CC50 (THP-1 macrophages) [µM]
FC(F)(F)c1ccc(-c2ccc(-c3cc(C(F)(F)F)nn3-c3ccc(NC4CCN(Cc5ccccc5)C4)cc3)cc2)cc1 (stereo not shown) [Compound 114]	> 10	13.6
FC(F)(F)c1cc(C2CCCCC2)n(-c2ccc(NC3CNC3)cc2)n1 [Compound 394]	5.5	30.9
CC(=O)NCCOCCN1CCC(Oc2ccc(-n3nc(C(F)(F)F)cc3C3CCCCC3)cc2)CC1 [Compound 427]	6.1	29.5
NCC(=O)Nc1ccc(-n2cc(C(F)(F)F)nc2-c2ccc(Br)cc2)cc1 [Compound 195]	> 10	38.6
O=C(CNCc1ccccc1)Nc1ccc(-n2nc(C(F)(F)F)cc2C2CCCCC2)cc1 [Compound 353]	4.2	17.5
COc1ccc(-n2cc(C(F)(F)F)nc2-c2ccc(-c3ccccc3)cc2)cc1 [Compound 245]	> 10	> 50
FC(F)(F)c1cn(-c2ccc(NCc3ccccc3)cc2)c(-c2ccc(-c3ccccc3)cc2)n1 [Compound 87]	6.7	> 50
CC(=O)NCCCCCN1CCC(Oc2ccc(-n3nc(C(F)(F)F)cc3C3CCCCC3)cc2)CC1 [Compound 431]	4.8	22.4
Fc1cccc(CNC2CCN(c3ccc(-n4nc(C(F)(F)F)cc4-c4ccc(-c5ccc(S(F)(F)(F)(F)F)cc5)cc4)cc3)C2)c1 (stereo not shown) [Compound 108]	> 10	> 50
FC(F)(F)c1cc(C2CCCCC2)n(-c2ccc(NC3CCN(Cc4ccccc4)CC3)cc2)n1 [Compound 381]	6.2	12.4
NCCCNC1CCN(c2ccc(-n3nc(C(F)(F)F)cc3C3CCCCC3)cc2)CC1 [Compound 420]	1	7
O=C(O)c1ccc(-n2cc(C(F)(F)F)nc2-c2ccc(-c3ccc(C(F)(F)F)cc3)cc2)c(F)c1 [Compound 176]	> 10	> 50
FC(F)(F)c1cn(-c2ccc(NCC3CC3)cc2)c(-c2ccc(-c3ccccc3)cc2)n1 [Compound 116]	9.9	> 50
FC(F)(F)c1cn(-c2ccc(Br)cc2)c(-c2ccc(Oc3ccccc3)cc2)n1 [Compound 219]	> 10	> 50
FC(F)(F)c1cn(-c2ccc(Br)cc2)c(-c2ccc(-c3ccccc3)cc2)n1 [Compound 81]	> 10	> 50
O=[N+]([O-])c1ccc(-n2nc(C(F)(F)F)cc2-c2ccc(-c3ccc(S(F)(F)(F)(F)F)cc3)cc2)cc1 [Compound 103]	> 10	> 50
FC(F)(F)c1cc(-c2ccc(-c3ccsc3)cc2)n(-c2ccc(N3CCNCC3)cc2)n1 [Compound 210]	2.5	10.5
FC(F)(F)c1cc(C2CCCCC2)n(-c2ccc(NC3CCNC3)cc2)n1 (stereo not shown) [Compound 312]	4.8	25.5
FC(F)(F)c1cn(-c2ccc(N3CCC(NCc4ccccc4)C3)cc2)c(-c2ccc(-c3ccccc3)cc2)n1 (stereo not shown) [Compound 84]	6.5	> 50

Source: paper doi:10.1101/2025.11.04.686469, “Discovery of Host-Directed Small Molecules with Broad Anti-Leishmanial Efficacy” (bioRxiv, 2025)
